20 compounds from patent US9228952B2, “Hematopoietic stem cell identification probe” (CANON KABUSHIKI KAISHA, priority 2012, dated 2016) can be followed below.

Series [1] has as its system c-Kit positive hematopoietic stem cells (bone marrow cells). As to the kind of experiment: Experimental Example 19: exposure to compound 7 in the presence of test substances, c-Kit staining, FACS. The format is cell-based, mouse. Here is the method:
Cells collected from a mouse in the same manner as in Experimental Example 1 were exposed to the compound 7 in the presence of test substances of fumitremorgin C and digoxin (both in 1 μM). After performing a blocking treatment in the same manner as in Experimental Example 1, the resulting cells were stained with an anti c-Kit antibody, that is, a marker for hematopoietic stem cells and hematopoietic precursor cells. The cells were further subjected to the dead cell staining with TO-PRO-3. Next, the cells were analyzed with FACS Aria II cell sorter manufactured by BD Biosciences. In the analysis, cell populations having a low TO-PRO-3 signal were regarded as a target, so that the analysis could be performed on a cell population excluding dead cells.
In other words, hematopoietic stem cell groups that were c-Kit positive and negative for the compound 7-derived signal were confirmed to be reduced by adding the test substances.

The test system of series [2] is hematopoietic stem cells (bone marrow cells). As to the kind of experiment: Identification of hematopoietic stem cells in stained bone marrow cells by FACS with antibody markers (Experimental Examples 1-17, Comparative Examples 1-2). More on the design: key to Identification of hematopoietic stem cells: A: Hematopoietic stem cells are identified very well.; B: Hematopoietic stem cells are identified well.; C: Hematopoietic stem cells are poorly identified. The format is cell-based, C57BL/6 mouse. The following applies: for Identification of hematopoietic stem cells: mouse bone marrow cells, FACS. Here is the method: A 1 mM DMSO solution of the compound 7 was added to an HBSS buffer containing 2% of FBS and 10 mM of HEPES, so as to obtain a stain of the compound 7 in a concentration of 1 μM. Bone marrow cells collected from a femur of a C57BL/6 mouse (of 12 weeks old) and hemolyzed were added to the stain in an amount of 1×10^6 cells/mL for exposure at 37° C. for 30 minutes. After the exposure, the cells were precipitated by centrifuge for removing the stain, and a blocking treatment was performed with 2.4G2 (anti-mouse Fcγ receptor II/III antibody-producing hybridoma supernatant). The blocked cells were further subjected to immunofluorescence staining with an anti c-Kit antibody, an anti Sca-1 antibody, an anti CD34 antibody and Lineage Marker. Furthermore, the cells were subjected to dead cell staining with TO-PRO-3. The respective antibodies used for fluorescence staining were selected so that the respective fluorescence wavelengths might not overlap one another and might not overlap the fluorescence wavelength of the compound 7 and the fluorescence wavelength of TO-PRO-3. Next, the resulting cells were analyzed with FACS Aria II cell sorter manufactured by BD Biosciences. In the analysis, cell populations having a low TO-PRO-3 signal were regarded as a target, so that the analysis could be performed on a cell population excluding dead cells.
First, fluorescence intensities of the cells obtained by analyzing fluorescence signals derived from the compound 7 based on signal intensities in two channels excited at 488 nm (PE-Cy5; 660/20 nm and PerCP-Cy 5.5; 710/50 nm: center wavelength/wavelength width) were developed into a cytogram.
Furthermore, among Lineage Marker negative cell fractions, cell fractions of Sca-1 positive, c-Kit positive and CD34 negative, which are used as markers for hematopoietic stem cells, were developed into cytograms as illustrated in FIG. 2 with respect to the two fluorescence signals derived from the compound 7 as in FIG. 1. […] Furthermore, merely cells identified by the compound 7 were separated by sorting.
Fluorescence signals derived from the compounds 8 to 23 were analyzed in the same manner as in Experimental Example 1 except that the compound 7 used in Experimental Example 1 was changed to each of the compounds 8 to 23.
Fluorescence signals derived from fluorescein were analyzed in the same manner as in Experimental Example 1 except that the compound 7 used in Experimental Example 1 was changed to fluorescein.
Fluorescence signals derived from Mito Tracker® Green FM were analyzed in the same manner as in Experimental Example 1 except that the compound 7 used in Experimental Example 1 was changed to Mito Tracker® Green FM.
The identification was evaluated in the following three grades A to C: […]
A general note: In flow cytometry, cells or beads pass a laser one at a time.

Series [3] deals with CD48 negative and CD150 positive fraction of bone marrow cells. As to the kind of experiment: Experimental Example 18: compound 7 staining with anti CD48 / anti CD150 antibody markers, flow cytometry. It is filed as cell-based, mouse. The following applies: cytogram of two compound 7-derived fluorescence signals. The text has this:
Cells collected from a mouse were subjected to the exposure to the compound 7 and a blocking treatment in the same manner as in Experimental Example 1. In order to evaluate incorporation of antibody markers, used as test substances, of an anti CD48 antibody and an anti CD150 antibody by hematopoietic stem cells, the blocked cells were further stained with the anti CD48 antibody and the anti CD150 antibody. Furthermore, the resulting cells were subjected to dead cell staining with TO-PRO-3. Next, the cells were analyzed with an FACS Canto II flow cytometer manufactured by BD Biosciences. In the analysis, cell populations having a low TO-PRO-3 signal were regarded as a target, so that the analysis could be performed on a cell population excluding dead cells.

Series [4] can be described thus: Measurement of fluorescence characteristics of compounds (fluorescence spectrophotometer). It is filed as physicochemical. As to conditions: 5 μM DMSO solution. The protocol: With respect to each of the compounds 7 to 23, a 5 μM DMSO solution was prepared, and an excitation wavelength and a fluorescence wavelength were measured by using a fluorescence spectrophotometer FL4500 manufactured by Hitachi High-Technologies Corporation (Table 1).

Setting [5] is: cells exposed to compound 7 in the presence of test substance 1 μM.

Each structure is given as a SMILES string.

Turning to `CCCCN1C(=O)/C(=c2\s/c(=C/c3ccc4c(c3)C3CCCC3N4c3ccc(OC)cc3)c(=O)n2CC)SC1=S` (stereo not shown) [Compound 7], the “c-Kit positive, compound 7-derived signal negative hematopoietic stem cells in the whole cells” value in series [1] (in the absence of an inhibitor (w/o inhibitors)) is listed as 0.75%. For the same compound, the “Whether hematopoietic stem cells can be identified (in words)” value in series [2] (same manner as Experimental Example 1) is “hematopoietic stem cells can be identified”. In addition, the “Identification of hematopoietic stem cells” value (“Identification” below) in series [2] (stain 1 μM, 37° C., 30 minutes) is listed as “A”. Further, the “Lineage Marker negative, Sca-1 positive, c-Kit positive and CD34 negative hematopoietic stem cell fractions found in cell population having low incorporation of the probe” value in series [2] (stain 1 μM, 37° C., 30 minutes, two channels excited at 488 nm) was determined as 94.7%. Also, the “Cells of CD48 negative and CD150 positive fraction present in region where hematopoietic stem cells were identified” value in series [3] is listed as 89.4%. Besides, in series [4], the Excitation wavelength λex stood at 539 nm and the Fluorescence wavelength λem was determined as 638 nm.
Regarding `CCN1C(=O)/C(=c2\s/c(=C/c3cc(Br)c4c(c3)C3CCCC3N4c3ccc(Br)cc3)c(=O)n2CC(=O)O)SC1=S` (stereo not shown) [Compound 8], the “Identification” value in series [2] (stain 1 μM, 37° C., 30 minutes) is “A”. In series [4], the Excitation wavelength λex came out at 513 nm and the Fluorescence wavelength λem amounted to 600 nm.
On the same counts, the results for `CCN1C(=O)/C(=c2\s/c(=C/c3ccc4c(c3)C3CCCC3N4c3ccc(OC)cc3)c(=O)n2CC(=O)O)SC1=S` (stereo not shown) [Compound 9] are “A”, 543 nm and 638 nm.
On the same counts, the results for `O=C(O)Cn1c(=O)/c(=C\c2ccc3c(c2)C2CCCC2N3Cc2ccccc2)s/c1=C1/SC(=S)N(Cc2ccccc2)C1=O` (stereo not shown) [Compound 10] are “A”, 540 nm and 614 nm.
Consider `COc1ccc(N2c3ccc(/C=c4/s/c(=C5/SC(=S)N(Cc6ccccc6)C5=O)n(CC(=O)O)c4=O)cc3C3CCCC32)cc1` (stereo not shown) [Compound 11], for which the “Identification” value in series [2] (stain 1 μM, 37° C., 30 minutes) is “A”. In series [4], this compound returned an Excitation wavelength λex of 542 nm and a Fluorescence wavelength λem of 643 nm.
For the compound `CCN1C(=O)/C(=c2\s/c(=C/c3ccc4c(c3)C3CCCC3N4c3ccccc3)c(=O)n2CC(=O)O)SC1=S` (stereo not shown) [Compound 12], the “Identification” value in series [2] (stain 1 μM, 37° C., 30 minutes) is recorded as “A”. In series [4], this compound came in with an Excitation wavelength λex of 531 nm and a Fluorescence wavelength λem of 615 nm.
On the same counts, the results for `CCN1C(=O)/C(=c2\s/c(=C/c3ccc4c(c3)C3CCCC3N4c3ccc(SC)cc3)c(=O)n2CC(=O)O)SC1=S` (stereo not shown) [Compound 13] are “A”, 539 nm and 636 nm.
On the same counts, the results for `CCN1C(=O)/C(=c2\s/c(=C/c3cc(Br)c4c(c3)C3CCCC3N4Cc3ccccc3)c(=O)n2CC(=O)O)SC1=S` (stereo not shown) [Compound 14] are “A”, 596 nm and 520 nm.
For `C=CCN1C(=O)/C(=c2\s/c(=C/c3ccc4c(c3)C3CCCC3N4c3ccc(OC)cc3)c(=O)n2CC(=O)O)SC1=S` (stereo not shown) [Compound 15], in that order: “A”, 504 nm and 606 nm.
`CCN1C(=O)S/C(=c2/s/c(=C/c3ccc4c(c3)C3CCCC3N4Cc3ccccc3)c(=O)n2CC(=O)O)C1=O` (stereo not shown) [Compound 16]: the “Identification” value in series [2] (stain 1 μM, 37° C., 30 minutes) is “B”. In series [4], the Excitation wavelength λex came out at 500 nm and the Fluorescence wavelength λem amounted to 578 nm.
On to `CCN1C(=O)/C(=c2\s/c(=C/c3ccc4c(c3)C3CCCC3N4Cc3ccccc3)c(=O)n2CC(=O)O)SC1=S` (stereo not shown) [Compound 17], for which the “Identification” value in series [2] (stain 1 μM, 37° C., 30 minutes) is “A”. Besides, in series [4], the Excitation wavelength λex stood at 535 nm and the Fluorescence wavelength λem came out at 612 nm.
On the same counts, the results for `CCCN1C(=O)/C(=c2\s/c(=C/c3ccc4c(c3)C3CCCC3N4c3ccc(OC)cc3)c(=O)n2CC)SC1=S` (stereo not shown) [Compound 18] are “A”, 539 nm and 636 nm.
On the same counts, the results for `CCCCCN1C(=O)/C(=c2\s/c(=C/c3ccc4c(c3)C3CCCC3N4c3ccc(OC)cc3)c(=O)n2CC)SC1=S` (stereo not shown) [Compound 19] are “B”, 538 nm and 638 nm.
For `CCn1c(=O)/c(=C\c2ccc3c(c2)C2CCCC2N3c2ccccc2)s/c1=C1/SC(=S)N(CC(=O)O)C1=O` (stereo not shown) [Compound 20], in that order: “B”, 533 nm and 615 nm.
As to `CCN1C(=O)/C(=c2\s/c(=C/c3ccc4c(c3)C3CCCC3N4c3cccc(SC)c3)c(=O)n2CC(=O)O)SC1=S` (stereo not shown) [Compound 21], the “Identification” value in series [2] (stain 1 μM, 37° C., 30 minutes) was “A”. In series [4], this compound gave an Excitation wavelength λex of 530 nm and a Fluorescence wavelength λem of 612 nm.
On the same counts, the results for `COc1ccc(N2c3ccc(/C=C4/SC(=S)N(CC(=O)NCC(=O)O)C4=O)cc3C3CCCC32)cc1` (stereo not shown) [Compound 22] are “A”, 511 nm and 626 nm.
On the same counts, the results for `O=C(O)CNC(=O)CN1C(=O)/C(=C\c2ccc3c(c2)C2CCCC2N3c2ccccc2)SC1=S` (stereo not shown) [Compound 23] are “A”, 499 nm and 598 nm.
`O=C1OC2(c3ccc(O)cc3Oc3cc(O)ccc32)c2ccccc21` [Fluorescein, fluorescein, reference compound]: the “Identification” value in series [2] (stain 1 μM, 37° C., 30 minutes) is listed as “C (not stained”.
Consider `C[C@H]1O[C@@H](O[C@H]2[C@@H](O)C[C@H](O[C@H]3[C@@H](O)C[C@H](O[C@H]4CC[C@@]5(C)[C@H](CC[C@@H]6[C@@H]5C[C@@H](O)[C@]5(C)[C@@H](C7=CC(=O)OC7)CC[C@]65O)C4)O[C@@H]3C)O[C@@H]2C)C[C@H](O)[C@@H]1O` [digoxin], for which the “c-Kit positive, compound 7-derived signal negative hematopoietic stem cells in the whole cells” value in series [1] (setting [5]) was 0.50%.
The same measure, in the same setting: the result for `COc1ccc2c3c([nH]c2c1)[C@H](C=C(C)C)N1C(=O)[C@@H]2CCCN2C(=O)[C@@H]1C3` [fumitremorgin C] reads 0.00%.
